Results reported in patent publication US9079866B2, “Flap modulators” (JANSSEN PHARMACEUTICA NV, priority 2013, dated 2015).
Structures can show the parent of a compound that is named as a salt.

System: leukotriene pathway in human whole blood (LTB4 levels)
Test: Human whole blood assay (A23187-stimulated LTB4)
Type: cell-based
Conditions: Homo sapiens, human whole blood diluted 1:1, A23187-stimulated; read-out: LTB4 IC50 1:1
Experimental: The ability of the compounds of the present invention to treat a FLAP-mediated disease and/or disorder, or associated symptoms or complications thereof, was determined using the following procedures. Binding assay data represent the average value obtained from two different assay plates, with samples run in duplicate on each plate. Human whole blood assay data represent a single replicate on an assay plate using whole blood from at least one healthy donor.
An in vitro cellular assay was performed using human whole blood collected in heparin-containing tubes, which was used to test the ability of compounds to modulate the leukotriene pathway in human whole blood. The blood was diluted 1:1 in RPMI medium, pre-incubated for 15 min at 37° Celsius with test compounds at various concentrations, and then stimulated with calcium ionophore, A23187 (7 μg/mL), for 30 min at 37° Celsius. The samples were then centrifuged and plasma was removed. The plasma was diluted in assay buffer and LTB4 levels were measured using a commercial kit (Enzo Life Sciences). The concentration of each compound that was required for half-maximal inhibition (modulation) of recombinant enzyme activity (IC50) was calculated by a 4-parameter equation using the program GraphPad Prism (GraphPad software).

| SMILES | IC50 |
| --- | --- |
| CC(=O)NC1CCN(S(=O)(=O)c2ccccc2-c2ccc(-c3cnc(N)c(F)c3)c(F)c2)CC1 [Example 670, N-(1-((4′-(6-Amino-5-fluoropyridin-3-yl)-3′-fluoro-[1,1′-biphenyl]-2-yl)sulfonyl)piperidin-4-yl)acetamide] | 526 nM |
| CC(C)(C)NS(=O)(=O)c1ccccc1-c1ccc(-c2cnc(N)nc2)c(F)c1F [Example 466, 4′-(2-Aminopyrimidin-5-yl)-N-tert-butyl-2′,3′-difluorobiphenyl-2-sulfonamide trifluoroacetic acid salt] | 990 nM |
| N#Cc1cc(Oc2ccccc2-c2ccc(-c3cnc(N)nc3)c(F)c2)ccn1 [Example 538, 4-{[4′-(2-Aminopyrimidin-5-yl)-3′-fluorobiphenyl-2-yl]oxy}pyridine-2-carbonitrile] | 330 nM |
| CCC(C)S(=O)(=O)c1ncccc1-c1ccc(-c2cnc(N)cn2)c(F)c1 (racemic) [Example 814, racemic 5-(4-(2-(sec-Butylsulfonyl)pyridin-3-yl)-2-fluorophenyl)pyrazin-2-amine formate] | 20.9 nM |
| Fc1cc(-c2cccnc2OCC2CC2)ccc1-c1cnc2[nH]ccc2n1 [Example 400, 2-{4-[2-(Cyclopropylmethoxy)pyridin-3-yl]-2-fluorophenyl}-5H-pyrrolo[2,3-b]pyrazine] | 729 nM |
| CC1CN(C(=O)c2ccccc2-c2ccc(-c3cnc(N)cn3)c(F)c2)CC(C)O1 (mixture of isomers) [Example 773, 5-{2′-[(2,6-Dimethylmorpholin-4-yl)carbonyl]-3-fluorobiphenyl-4-yl}pyrazin-2-amine (diastereoisomeric mixture)] | 639 nM |
| CCC(C)S(=O)(=O)c1ncccc1-c1ccc(-c2cnc(N)nc2)c(F)c1 (racemic) [Example 813, racemic 5-(4-(2-(sec-Butylsulfonyl)pyridin-3-yl)-2-fluorophenyl)pyrimidin-2-amine formate] | 75.1 nM |
| Nc1cnc(-c2ccc(-c3cccnc3S(=O)(=O)C3CCNC3)cc2F)cn1 (racemic) [Example 803, racemic 5-(2-Fluoro-4-(2-(pyrrolidin-3-ylsulfonyl)pyridin-3-yl)phenyl)pyrazin-2-amine hydrochloride] | 241 nM |
| CC(C)(C)NS(=O)(=O)c1ccccc1-c1ccc(-c2ccc3[nH]ccc3c2)c(F)c1 [Example 421, N-tert-Butyl-3′-fluoro-4′-(1H-indol-5-yl)biphenyl-2-sulfonamide] | > 10000 nM |
| N#Cc1nc(-c2ccc(-c3ccccc3S(=O)(=O)NCCO)cc2F)cnc1N [Example 413, 4′-(5-Amino-6-cyanopyrazin-2-yl)-3′-fluoro-N-(2-hydroxyethyl)biphenyl-2-sulfonamide] | 448 nM |
| CS(=O)(=O)c1cc(F)ccc1-c1ccc(-c2cnc3[nH]ccc3n2)c(F)c1 [Example 489, 2-[3,4′-Difluoro-2′-(methylsulfonyl)biphenyl-4-yl]-5H-pyrrolo[2,3-b]pyrazine] | 307 nM |

Same assay, conditions: Homo sapiens, human whole blood diluted 1:1 in RPMI, A23187-stimulated LTB4; read-out: LTB4 IC50 1:1

| SMILES | IC50 |
| --- | --- |
| CN1CCN([C@@H]2CN(S(=O)(=O)c3ccccc3-c3ccc(-c4cnc(N)cn4)c(F)c3)C[C@H]2O)CC1 (racemic) [Example 188, Racemic-1-{[4′-(5-Aminopyrazin-2-yl)-3′-fluorobiphenyl-2-yl]sulfonyl}-4-(4-methylpiperazin-1-yl)-pyrrolidin-3-ol trifluoroacetic acid salt] | 1180 nM |
| CC(CO)(CO)NS(=O)(=O)c1ccccc1-c1ccc(-c2cnc(N)nc2)c(F)c1 [Example 255, 4′-(2-Aminopyrimidin-5-yl)-3′-fluoro-N-[2-hydroxy-1-(hydroxymethyl)-1-methylethyl]biphenyl-2-sulfonamide] | 76 nM |
| CC(CO)NS(=O)(=O)c1ccccc1-c1ccc(-c2cnc(N)cn2)c(F)c1 (stereo in doubt) [Example 32, 4′-(5-Aminopyrazin-2-yl)-3′-fluoro-N-[(1S)-2-hydroxy-1-methylethyl]biphenyl-2-sulfonamide] | 30 nM |
| CS(=O)(=O)NS(=O)(=O)c1ccccc1-c1ccc(-c2cnc(N)cn2)c(F)c1 [Example 96, 4′-(5-Aminopyrazin-2-yl)-3′-fluoro-N-(methylsulfonyl)biphenyl-2-sulfonamide] | > 10000 nM |
| CNS(=O)(=O)c1cc(C(F)(F)F)ccc1-c1ccc(-c2cnc(N)cn2)c(F)c1 [Example 208, 4′-(5-Aminopyrazin-2-yl)-3′-fluoro-N-methyl-4-(trifluoromethyl)biphenyl-2-sulfonamide] | 14 nM |
| Nc1cnc(-c2ccc(-c3ccccc3S(=O)(=O)NC3(CO)CCCC3)cc2F)cn1 [Example 179, 4′-(5-Aminopyrazin-2-yl)-3′-fluoro-N-[1-(hydroxymethyl)cyclopentyl]biphenyl-2-sulfonamide] | 2 nM |
| N#CCCNS(=O)(=O)c1ccccc1-c1ccc(-c2cnc(N)cn2)c(F)c1 [Example 169, 4′-(5-Aminopyrazin-2-yl)-N-(2-cyanoethyl)-3′-fluorobiphenyl-2-sulfonamide] | 23 nM |
| CN[C@@H]1CCN(S(=O)(=O)c2ccccc2-c2ccc(-c3cnc(N)cn3)c(F)c2)C1 [Example 126, (R)-5-(3-Fluoro-2′-{[3-(methylamino)pyrrolidin-1-yl]sulfonyl}biphenyl-4-yl)pyrazin-2-amine] | 572 nM |
| Nc1ncc(-c2ccc(-c3ccccc3S(=O)(=O)Cc3nc(C4CC4)no3)cc2F)cn1 [Example 321, 5-(2′-{[(3-Cyclopropyl-1,2,4-oxadiazol-5-yl)methyl]sulfonyl}-3-fluorobiphenyl-4-yl)pyrimidin-2-amine] | 8490 nM |
| CC(C)(C)OC(=O)N1CC(O)(CNS(=O)(=O)c2ccccc2-c2ccc(-c3ccc(N)nc3)c(F)c2)C1 [Example 357, tert-Butyl 3-((4′-(6-aminopyridin-3-yl)-3′-fluoro-[1,1′-biphenyl]-2-ylsulfonamido)methyl)-3-hydroxyazetidine-1-carboxylate] | 1130 nM |
| Nc1cnc(-c2ccc(-c3ccccc3S(=O)(=O)N3CC[C@@H](N)C3)cc2F)cn1 [Example 92, (R)-5-(2′-((3-Aminopyrrolidin-1-yl)sulfonyl)-3-fluoro-[1,1′-biphenyl]-4-yl)pyrazin-2-amine] | 222 nM |
| N#CC1CN(S(=O)(=O)c2ccccc2-c2ccc(-c3cnc(N)nc3)c(F)c2)C1 [Example 314, 1-((4′-(2-Aminopyrimidin-5-yl)-3′-fluoro-[1,1′-biphenyl]-2-yl)sulfonyl)azetidine-3-carbonitrile] | 178 nM |
| Nc1cnc(-c2ccc(-c3ccccc3S(=O)(=O)N[C@H]3CCCC[C@@H]3CO)cc2F)cn1 (racemic) [Example 121, racemic (trans)-4′-(5-Aminopyrazin-2-yl)-3′-fluoro-N-[2-(hydroxymethyl)cyclohexyl]biphenyl-2-sulfonamide] | 10 nM |
| CC(C)(CO)CNS(=O)(=O)c1ccccc1-c1ccc(-c2cnc(N)cn2)c(F)c1 [Example 103, 4′-(5-Aminopyrazin-2-yl)-3′-fluoro-N-(3-hydroxy-2,2-dimethylpropyl)biphenyl-2-sulfonamide] | 17 nM |
| Nc1cnc(-c2ccc(-c3ccccc3S(=O)(=O)N3CCN(c4cnccn4)CC3)cc2F)cn1 [Example 176, 5-{3-Fluoro-2′-[(4-pyrazin-2-ylpiperazin-1-yl)sulfonyl]biphenyl-4-yl}pyrazin-2-amine] | 10 nM |
| NS(=O)(=O)c1ccccc1-c1ccc(-c2cnc3[nH]ccc3c2)c(F)c1 [Example 368, 3′-Fluoro-4′-(1H-pyrrolo[2,3-b]pyridin-5-yl)biphenyl-2-sulfonamide] | 178 nM |
| Nc1cnc(-c2ccc(-c3ccccc3S(=O)(=O)N3C[C@H](O)[C@@H](N4CCOCC4)C3)cc2F)cn1 (racemic) [Example 187, Racemic-1-{[4′-(5-Aminopyrazin-2-yl)-3′-fluorobiphenyl-2-yl]sulfonyl}-4-morpholin-4-ylpyrrolidin-3-ol trifluoroacetic acid salt] | 69 nM |
| Nc1cnc(-c2ccc(-c3ccc(C(F)(F)F)cc3S(=O)(=O)NCCO)cc2F)cn1 [Example 210, 4′-(5-Aminopyrazin-2-yl)-3′-fluoro-N-(2-hydroxyethyl)-4-(trifluoromethyl)biphenyl-2-sulfonamide] | 20 nM |
| CCSc1ccccc1-c1ccc(-c2cnc3[nH]ccc3n2)c(F)c1 [Example 384, 2-[2′-(Ethylsulfanyl)-3-fluorobiphenyl-4-yl]-5H-pyrrolo[2,3-b]pyrazine] | 82 nM |
| Nc1cnc(-c2ccc(-c3ccccc3S(=O)(=O)N[C@@H]3c4ccccc4C[C@@H]3O)cc2F)cn1 [Example 161, 4′-(5-Aminopyrazin-2-yl)-3′-fluoro-N-((1R,2S)-2-hydroxy-2,3-dihydro-1H-inden-1-yl)-[1,1′-biphenyl]-2-sulfonamide] | 48 nM |
| Nc1cnc(-c2ccc(-c3ccccc3S(=O)(=O)NC3Cc4ccccc4C3)cc2F)cn1 [Example 21, 4′-(5-Aminopyrazin-2-yl)-N-(2,3-dihydro-1H-inden-2-yl)-3′-fluorobiphenyl-2-sulfonamide] | 35 nM |
| Nc1cnc(-c2ccc(-c3ccccc3S(=O)(=O)N3CC[C@H](O)C3)cc2F)cn1 [Example 184, (3S)-1-{[4′-(5-Aminopyrazin-2-yl)-3′-fluorobiphenyl-2-yl]sulfonyl}pyrrolidin-3-ol trifluoroacetic acid salt] | 21 nM |
| Nc1cnc(-c2ccc(-c3ccccc3S(=O)(=O)N3c4ccccc4C[C@H]3CO)cc2F)cn1 [Example 135, (S)-(1-{[4′-(5-Aminopyrazin-2-yl)-3′-fluorobiphenyl-2-yl]sulfonyl}-2,3-dihydro-1H-indol-2-yl)-methanol] | 16 nM |
